Test results as given in article PMC7808739, “Repurposing existing drugs: identification of SARS-CoV-2 3C-like protease inhibitors” (Journal of Enzyme Inhibition and Medicinal Chemistry, 2021).
Structures can show the parent of a compound that is named as a salt. Where two headings read alike, the source gives them in different places.

Target: SARS-CoV-2 3CLpro (Severe acute respiratory syndrome coronavirus 2, UniProt P0DTD1)
Test: biochemical
Assay type: biochemical
Conditions: for SARS-CoV-2 3CLpro inhibitor grade in words: grading by IC50 in the IQF peptide assay
[1] = 0.25 µM protease, 1.25 µM IQF peptide substrate, drugs 0–100 µM preincubated 1 h at 37 °C, then 3 h, N = 3, mean ± SEM, read-out: IC50, inhibition of SARS-CoV-2 3CLpro activity
[2] = IC50, inhibition of SARS-CoV-2 3CLpro activity

Row | Compound | IC50 [1] | SARS-CoV-2 3CLpro inhibitor grade in words | IC50 [2]
1 | Colistin sulphate | 23.2 µM | moderate | 
2 | CC(C)C[C@H](NC(=O)[C@@H](COC(C)(C)C)NC(=O)[C@H](Cc1ccc(O)cc1)NC(=O)[C@H](CO)NC(=O)[C@H](Cc1c[nH]c2ccccc12)NC(=O)[C@H](Cc1cnc[nH]1)NC(=O)[C@@H]1CCC(=O)N1)C(=O)N[C@@H](CCCNC(=N)N)C(=O)N1CCC[C@H]1C(=O)NNC(N)=O [Goserelin acetate] |  |  | 12 µM
3 | COCC1=C(C(=O)OC(C)OC(=O)OC(C)C)N2C(=O)[C@@H](NC(=O)/C(=N\OC)c3csc(N)n3)[C@H]2SC1 (stereo partly shown) [Cefpodoxime proxetil] |  | moderate | 32.4 µM
4 | CC(C)(C)NC(=O)[C@@H]1C[C@@H]2CCCC[C@@H]2CN1C[C@@H](O)[C@H](Cc1ccccc1)NC(=O)[C@H](CC(N)=O)NC(=O)c1ccc2ccccc2n1 [Saquinavir mesylate] |  |  | 9.92 µM
5 | C=C(c1ccc(C(=O)O)cc1)c1cc2c(cc1C)C(C)(C)CCC2(C)C [Bexarotene] | 26.5 µM | moderate | 
6 | CCC(=O)O[C@]1(C(=O)CCl)[C@@H](C)C[C@H]2[C@@H]3CCC4=CC(=O)C=C[C@]4(C)[C@@]3(F)[C@@H](O)C[C@@]21C [Clobetasol propionate] | 18.1 µM |  | 
7 | C=C(CC)C(=O)c1ccc(OCC(=O)O)c(Cl)c1Cl [Ethacrynic acid] | 1.11 µM |  | 
8 | Oc1ncnc2[nH]ncc12 [Allopurinol] |  |  | 3.77 µM
9 | CO[C@H]1C[C@@H]2CC[C@@H](C)[C@@](O)(O2)C(=O)C(=O)N2CCCC[C@H]2C(=O)O[C@H]([C@H](C)C[C@@H]2CC[C@@H](O)[C@H](OC)C2)CC(=O)[C@H](C)/C=C(\C)[C@@H](O)[C@@H](OC)C(=O)[C@H](C)C[C@H](C)/C=C/C=C/C=C/1C [Sirolimus (Rapamycin), Sirolimus] | 22.3 µM |  | 
10 | CN(Cc1ccc(C(C)(C)C)cc1)Cc1cccc2ccccc12 [Butenafine hydrochloride] |  |  | 5.4 µM
11 | C=CC[N+]1([C@H]2C[C@H]3[C@@H]4CC[C@H]5C[C@H](O)[C@@H](N6CCOCC6)C[C@]5(C)[C@H]4CC[C@]3(C)[C@H]2OC(C)=O)CCCC1 [Rocuronium bromide] | 17.5 µM |  | 
12 | CC(=O)Oc1ccc(C(c2ccc(OC(C)=O)cc2)c2ccccn2)cc1 [Bisacodyl] |  |  | 17.5 µM
13 | N[C@@H]1C[C@H]1c1ccccc1 [Tranylcypromine hydrochloride] |  |  | 8.64 µM
14 | O=C(O)COCCN1CCN(C(c2ccccc2)c2ccc(Cl)cc2)CC1 (stereo not shown) [Cetirizine] |  |  | 25.6 µM
15 | CCCCCCCCCCCCCCCC(=O)O[C@@H]1[C@@H](O)[C@@H](O)[C@@H]([C@H](NC(=O)[C@@H]2C[C@@H](CCC)CN2C)[C@H](C)Cl)O[C@@H]1SC.Cl [Clindamycin palmitate hydrochloride] | 33.2 µM | moderate | 
16 | COc1ccc2cc([C@H](C)C(=O)O)ccc2c1 [Naproxen] |  |  | 3.45 µM
17 | NC(=O)C[S@@+]([O-])C(c1ccccc1)c1ccccc1 [Armodafinil] | 17.9 µM |  | 
18 | O=C(c1ccc(OCCN2CCCCC2)cc1)c1c(-c2ccc(O)cc2)sc2cc(O)ccc12 [Raloxifene hydrochloride] | 5.61 µM |  | 
